The values below come from ChEMBL document CHEMBL4229381, “New cytokinin derivatives possess UVA and UVB photoprotective effect on human skin cells and prevent oxidative stress” (Eur J Med Chem, 2018).

The subject of data set [1] is HaCaT. The experiment in a line: Cytotoxicity in human HaCaT cells assessed as reduction in cell viability at 50 uM after 24 hrs by resazurin dye-based fluorescence assay relative to control. (In general: Alamar Blue is a resazurin reagent that responds to reducing activity.)
In data set [2] the test system is BJ. The experiment in a line: Cytotoxicity in human BJ cells assessed as reduction in cell viability at 50 uM after 24 hrs by resazurin dye-based fluorescence assay relative to control.
Data set [3] in a line: Cytotoxicity in human NHDF cells assessed as cell viability at 3.9 uM after 24 hrs by neutral red uptake assay relative to control. It counts as cell-based. The following applies: read-out: Activity.
A short description of data set [4]: Cytotoxicity in human NHDF cells assessed as cell viability at 7.8 uM after 24 hrs by neutral red uptake assay relative to control. It counts as cell-based. The following applies: read-out: Activity.
Data set [5] is described as follows: Cytotoxicity in human NHDF cells assessed as cell viability at 15.6 uM after 24 hrs by neutral red uptake assay relative to control. It counts as cell-based. The following applies: read-out: Activity.
The nature of data set [6]: Cytotoxicity in human NHDF cells assessed as cell viability at 31.3 uM after 24 hrs by neutral red uptake assay relative to control. It counts as cell-based. The following applies: read-out: Activity.
Data set [7] is described as follows: Cytotoxicity in human NHDF cells assessed as cell viability at 62.5 uM after 24 hrs by neutral red uptake assay relative to control. The following applies: read-out: Activity. It counts as cell-based.
Data set [8] is described as follows: Cytotoxicity in human NHDF cells assessed as cell viability at 125 uM after 24 hrs by neutral red uptake assay relative to control. It counts as cell-based. The following applies: read-out: Activity.
Data set [9] is described as follows: Phototoxicity in human NHDF cells assessed as cell viability at 3.9 uM preincubated for 60 mins followed by 5 J/cm2 UVA irradiation and measured after 24 hrs by neutral red uptake assay relative to control. It counts as cell-based. The following applies: read-out: Activity.
Data set [10] is described as follows: Phototoxicity in human NHDF cells assessed as cell viability at 7.8 uM preincubated for 60 mins followed by 5 J/cm2 UVA irradiation and measured after 24 hrs by neutral red uptake assay relative to control. It counts as cell-based. The following applies: read-out: Activity.
The nature of data set [11]: Phototoxicity in human NHDF cells assessed as cell viability at 15.6 uM preincubated for 60 mins followed by 5 J/cm2 UVA irradiation and measured after 24 hrs by neutral red uptake assay relative to control. It counts as cell-based. The following applies: read-out: Activity.
A short description of data set [12]: Phototoxicity in human NHDF cells assessed as cell viability at 31.3 uM preincubated for 60 mins followed by 5 J/cm2 UVA irradiation and measured after 24 hrs by neutral red uptake assay relative to control. It counts as cell-based. The following applies: read-out: Activity.
A short description of data set [13]: Phototoxicity in human NHDF cells assessed as cell viability at 62.5 uM preincubated for 60 mins followed by 5 J/cm2 UVA irradiation and measured after 24 hrs by neutral red uptake assay relative to control. It counts as cell-based. The following applies: read-out: Activity.
The nature of data set [14]: Phototoxicity in human NHDF cells assessed as cell viability at 125 uM preincubated for 60 mins followed by 5 J/cm2 UVA irradiation and measured after 24 hrs by neutral red uptake assay relative to control. It counts as cell-based. The following applies: read-out: Activity.
The nature of data set [15]: Cytotoxicity in human HaCaT cells assessed as cell viability at 3.9 uM after 24 hrs by neutral red uptake assay relative to control. It counts as cell-based. The following applies: read-out: Activity.
The nature of data set [16]: Cytotoxicity in human HaCaT cells assessed as cell viability at 7.8 uM after 24 hrs by neutral red uptake assay relative to control. It counts as cell-based. The following applies: read-out: Activity.
A short description of data set [17]: Cytotoxicity in human HaCaT cells assessed as cell viability at 15.6 uM after 24 hrs by neutral red uptake assay relative to control. It counts as cell-based. The following applies: read-out: Activity.
The nature of data set [18]: Cytotoxicity in human HaCaT cells assessed as cell viability at 31.3 uM after 24 hrs by neutral red uptake assay relative to control. It counts as cell-based. The following applies: read-out: Activity.
A short description of data set [19]: Cytotoxicity in human HaCaT cells assessed as cell viability at 125 uM after 24 hrs by neutral red uptake assay relative to control. It counts as cell-based. The following applies: read-out: Activity.
Data set [20] is described as follows: Phototoxicity in human HaCaT cells assessed as cell viability at 3.9 uM preincubated for 60 mins followed by 7.5 J/cm2 UVA irradiation and measured after 24 hrs by neutral red uptake assay relative to control. It counts as cell-based. The following applies: read-out: Activity.
A short description of data set [21]: Phototoxicity in human HaCaT cells assessed as cell viability at 7.8 uM preincubated for 60 mins followed by 7.5 J/cm2 UVA irradiation and measured after 24 hrs by neutral red uptake assay relative to control. It counts as cell-based. The following applies: read-out: Activity.
The nature of data set [22]: Phototoxicity in human HaCaT cells assessed as cell viability at 15.6 uM preincubated for 60 mins followed by 7.5 J/cm2 UVA irradiation and measured after 24 hrs by neutral red uptake assay relative to control. It counts as cell-based. The following applies: read-out: Activity.
Data set [23] in a line: Phototoxicity in human HaCaT cells assessed as cell viability at 31.3 uM preincubated for 60 mins followed by 7.5 J/cm2 UVA irradiation and measured after 24 hrs by neutral red uptake assay relative to control. It counts as cell-based. The following applies: read-out: Activity.
Data set [24] in a line: Phototoxicity in human HaCaT cells assessed as cell viability at 62.5 uM preincubated for 60 mins followed by 7.5 J/cm2 UVA irradiation and measured after 24 hrs by neutral red uptake assay relative to control. It counts as cell-based. The following applies: read-out: Activity.
Data set [25] can be described thus: Phototoxicity in human HaCaT cells assessed as cell viability at 125 uM preincubated for 60 mins followed by 7.5 J/cm2 UVA irradiation and measured after 24 hrs by neutral red uptake assay relative to control. It counts as cell-based. The following applies: read-out: Activity.
Data set [26] has as its system HaCaT. In words: Cytoprotection against phototoxicity in human HaCaT cells assessed as increase in cell viability at 3.9 uM preincubated for 60 mins followed by 10 J/cm2 UVA irradiation and measured after 24 hrs by neutral red uptake assay. It counts as functional, cell-based.
Data set [27] has as its system NHDF. The experiment in a line: Cytoprotection against phototoxicity in human NHDF cells assessed as increase in cell viability at 31.3 uM preincubated for 60 mins followed by 150 mJ/cm2 UVB irradiation and measured after 24 hrs by neutral red uptake assay. It counts as functional, cell-based.
Data set [28] in a line: Antioxidant activity assessed as trolox equivalent of AAPH-induced radical scavenging activity at 1 uM pretreated for 15 mins followed by […] challenge measured every 3 mins over 90 mins by ORAC-FL assay. It counts as functional.
Data set [29] deals with Nicotiana tabacum. The experiment in a line: Growth promoting activity in tobacco callus assessed as callus weight at 10^-5 mol/L after 4 weeks relative to control. It counts as functional.
For data set [30], the system named is Amaranthus caudatus. In words: Growth promoting activity in Amaranthus caudatus var. atropurpurea seeds by measuring betacyanin at 10^-4 mol/L after 48 hrs relative to control. It counts as functional.
The test system of data set [31] is Triticum aestivum. In words: Anti-senescent activity in leaf of Triticum aestivum cv. Hereward seedlings by measuring chlorophyll retention at 10^-4 mol/L after 4 days relative to control. It counts as functional.
Data set [32] deals with NHDF. The experiment in a line: Cytoprotection against phototoxicity in human NHDF cells assessed as increase in cell viability at 3.9 to 31.3 uM preincubated for 60 mins followed by 7.5 J/cm2 UVA irradiation and measured after 24 hrs by neutral red uptake assay. It counts as functional, cell-based.
Data set [33] relates to HaCaT. In words: Cytoprotection against phototoxicity in human HaCaT cells assessed as increase in cell viability at 3.9 to 31.3 uM preincubated for 60 mins followed by 10 J/cm2 UVA irradiation and measured after 24 hrs by neutral red uptake assay. It counts as functional, cell-based.
In data set [34] the test system is NHDF. In words: Cytoprotection against phototoxicity in human NHDF cells assessed as increase in cell viability at 3.9 to 31.3 uM preincubated for 60 mins followed by 150 mJ/cm2 UVB irradiation and measured after 24 hrs by neutral red uptake assay. It counts as functional, cell-based.
For data set [35], the system named is Caenorhabditis elegans. In words: Protection against juglone-induced oxidative stress in Caenorhabditis elegans BA17 (fem-1) at 100 uM preincubated for 3 days followed by juglone addition measured every hour for 12 ro 14 hrs by inverted microscopic analysis. It counts as functional, organism-based.
Data set [36] can be described thus: Cytotoxicity in human HaCaT cells assessed as cell viability at 62.5 uM after 24 hrs by neutral red uptake assay relative to control. It counts as cell-based. The following applies: read-out: Activity.

Activity calls are given as the source filed them. The rule behind the calls is not given here.

Consider `c1nc(NCC2CCCO2)c2nc[nH]c2n1` (centres undefined), for which the Activity in [1] is below 10%; in data set [2], below 10%; in [28], below 0.05 equiv; in [29], 110%; in data set [30] it was 109%; in data set [31], 114%. The viability at 24 h, 3.9 µM in data set [3] stood at 102%; in data set [9], 99%; in data set [15] it was 102%; in data set [20], 101%. In addition, the viability at 24 h, 7.8 µM was 103% in [4], 101% in data set [10], 104% in data set [16] and 103% in [21]. Moreover, the viability at 24 h, 15.6 µM in data set [5] worked out at 101%; in data set [11], 100%; in data set [17], 102%; in data set [22], 106%. The viability at 24 h, 31.3 µM was found to be 102% in data set [6], 101% in [12], 104% in data set [18] and 113% in data set [23]. Further, the viability at 24 h, 62.5 µM in data set [7] is 102%; in data set [13], 100%; in data set [24], 118%. The viability at 24 h, 125 µM came out at 101% in data set [8], 103% in data set [14], 102% in [19] and 119% in [25]. Further, the result in [26] and in data set [27] was Active.
Take `Clc1nc(NCc2cccs2)c2ncn(C3CCCO3)c2n1` (centres undefined): the Activity in data set [29] was found to be 108%; in [30], 101%. Moreover, the result in data set [31] was inactive.
In the case of `c1ccc(CNc2ncnc3[nH]cnc23)cc1` [6-BENZYLAMINOPURINE], the Activity in [29] came out at 20%.
For the compound `O=C(/C=C/c1ccc(O)c(O)c1)O[C@H](Cc1ccc(O)c(O)c1)C(=O)O`, the outcome in [32], in [33], in data set [26] and in data set [34] was Active. Besides, the Activity in [28] stood at 9.14 equiv.
With `c1csc(CCNc2ncnc3[nH]cnc23)c1`, the figures for the Activity in data set [29] and in data set [30] were 77% and 80%, respectively. The result in [31] was inactive.
As for `c1nc(NCC2CCCC2)c2nc[nH]c2n1`, the Activity in data set [29] is 100%; in data set [30], 97%; in data set [31], 71%.
As to `c1coc(CNc2ncnc3c2ncn3C2CCCO2)c1` (centres undefined), the result in data set [32], in [34] and in data set [35] was Active. The Activity in data set [29] was 111%; in [30], 70%; in data set [31], 125%.
With `OCc1ccc(CNc2ncnc3c2ncn3C2CCCO2)o1` (centres undefined), the Activity is below 10% in [1]; below 10% in data set [2]; 0.77 equiv in data set [28]; 103% in [29]; 75% in data set [31]. Further, the viability at 24 h, 3.9 µM worked out at 103% in data set [3], 101% in [9], 100% in data set [15] and 104% in data set [20]. In addition, the viability at 24 h, 7.8 µM in data set [4] came out at 105%; in data set [10], 107%; in [16], 100%; in data set [21] it was 111%. The viability at 24 h, 15.6 µM turned out to be 104% in [5], 102% in [11], 102% in data set [17] and 108% in [22]. Moreover, the viability at 24 h, 31.3 µM in [6] was 108%; in data set [12], 107%; in [18] it was 108%; in [23], 118%. Also, the viability at 24 h, 62.5 µM in [7] worked out at 107%; in [13], 111%; in data set [36], 106%; in data set [24], 121%. The viability at 24 h, 125 µM in data set [8] was 110%; in [14] it was 112%; in [19], 110%; in data set [25], 125%. Also, the result in [26] was Active.
As to `Cc1ccsc1CNc1ncnc2c1ncn2C1CCCO1` (centres undefined), the Activity in [29] amounted to 99%; in data set [31] it was 110%.
